Measurements reported in patent US20130296228A1, “EFFLUX PUMP INHIBITORS” (priority 2010, published 2013).
“And” between values parts separate entries of the source, which are not always exact repeats. Identical values can stand only once. Like-named read-outs stand apart in the source and are kept apart here. Residues, ends and D or L forms follow the SMILES beside them.

Tests used:
[1] = system: MDR clinical isolate of P. aeruginosa 2301; assay: Systemic infection in mice, % survival; type: in vivo; conditions: Table 7, mice, Oral
P. aeruginosa 2301 [2] = assay: Diameter of zone of inhibition of antimicrobial agents with or without efflux pump inhibitor; type: cell-based; conditions: for Diameter of zone of inhibition: P. aeruginosa 2301
P. aeruginosa 2301 [3] = assay: Survival of high density inoculation in MHA medium; type: cell-based; conditions: high density inoculation 2-5 × 10^9 CFU/ml; 20 mcg/ml in MHA medium
Excerpt: In a most surprising manner, the combination of ceftazidime and azithromycin and tigecycline respectively brought about more than 7 log reduction in the bacterial count as compared to individual effects in highly resistant Pseudomonas strain. Moreover in a very unusual and surprising manner this tremendous bactericidal effect is taking place at concentrations much below than their individual inhibitory concentrations. […] It is also likely that ceftazidime interacts with outer membrane porins and acts as a porin modulator. Bacalum et al. have shown that ceftazidime binds to outer membrane porins with high affinity (Bacalum et al. Romanian. J. Biophys., 19, 105-116, 2009).

P. aeruginosa 23587 = assay: Diameter of zone of inhibition of antimicrobial agents with or without efflux pump inhibitor; type: cell-based; conditions: for change of activity in the presence of PAN: clinical isolates P. aeruginosa 23587 and P. aeruginosa 2301; for inhibition of MDR RND efflux pumps, concluded from potentiation: clinical isolates of P. aeruginosa
Excerpt: Since RND efflux pumps operate by utilizing energy in […], metabolic inhibitor, sodium azide brings about MDR RND pump inhibition by causing energy deprivation.

[4] = Table 1, +PAN (20 μg/ml), 12.5 μg/well
[5] = Table 1, P. aeruginosa 23587, +PAN (20 μg/ml), 12.5 μg/well
[6] = Table 2, P. aeruginosa (23587), +sodium azide (10 μg/ml), 50 μg/well
[7] = Table 2, P. aeruginosa (23587), +sodium azide (10 μg/ml), 100 μg/well
[8] = Table 2, P. aeruginosa (23587), +sodium azide (10 μg/ml), 200 μg/well

CS(=O)(=O)O.C[C@H](N)C(=O)OC1CCN(c2c(F)cc3c(=O)c(C(=O)O)cn4c3c2CC[C@@H]4C)CC1 [2′S,5S-(−)-9-Fluoro-8-(4-alaninyloxy-piperidin-1-yl)-5-methyl-6,7-dihydro-1-oxo-1H,5H-benzo[i,j]quinolizine-2-carboxylic acid methane sulfonic acid salt]
% survival ([1]; 50 mg/kg BID × 1 day): 0% | % survival ([1]; 75 mg/kg BID × 1 day): 16.6% | % survival ([1]; 100 mg/kg BID × 1 day): 16.6%

CC[C@H]1OC(=O)[C@H](C)[C@@H](O[C@H]2C[C@@](C)(OC)[C@@H](O)[C@H](C)O2)[C@H](C)[C@@H](O[C@@H]2O[C@H](C)C[C@H](N(C)C)[C@H]2O)[C@](C)(O)C[C@@H](C)CN(C)[C@H](C)[C@@H](O)[C@]1(C)O [Azithromycin, azithromycin]
change of activity in the presence of cefepime and ceftazidime (P. aeruginosa 2301 [2]; Example 6): significant potentiation | Diameter of zone of inhibition (P. aeruginosa 2301 [2]; [4]): 25 m.m. | Diameter of zone of inhibition (P. aeruginosa 2301 [2]; Table 1, +PAN (20 μg/ml), 25 μg/well): 28 m.m. | Diameter of zone of inhibition (P. aeruginosa 2301 [2]; Table 1, +PAN (20 μg/ml), 50 μg/well): 32 m.m. | Diameter of zone of inhibition (P. aeruginosa 2301 [2]; Table 1, Control, 25 μg/well): SLI | Diameter of zone of inhibition (P. aeruginosa 2301 [2]; Table 1, Control, 50 μg/well): 13.5H | Diameter of zone of inhibition (P. aeruginosa 2301 [2]; Table 6, +Cefepime (2 μg/ml), 50 μg/Well): 24H | Diameter of zone of inhibition (P. aeruginosa 2301 [2]; Table 6, +Cefepime (2 μg/ml), 100 μg/Well): 28H | Diameter of zone of inhibition (P. aeruginosa 2301 [2]; Table 6, +Cefepime (2 μg/ml), 200 μg/Well): 30H | Diameter of zone of inhibition (P. aeruginosa 2301 [2]; Table 6, +Ceftazidime (0.5 μg/ml), 50 μg/Well): 32H | Diameter of zone of inhibition (P. aeruginosa 2301 [2]; Table 6, +Ceftazidime (0.5 μg/ml), 100 μg/Well): 36H | Diameter of zone of inhibition (P. aeruginosa 2301 [2]; Table 6, +Ceftazidime (0.5 μg/ml), 200 μg/Well): 42H | Diameter of zone of inhibition (P. aeruginosa 2301 [2]; Table 6, Control, 50 μg/Well): 12H | Diameter of zone of inhibition (P. aeruginosa 2301 [2]; Table 6, Control, 100 μg/Well): 20H | Diameter of zone of inhibition (P. aeruginosa 2301 [2]; Table 6, Control, 200 μg/Well): 24H | CFU/ml at 48 h (P. aeruginosa 2301 [3]): >5 × 10^9 CFU/ml | change of activity in presence of reserpine (P. aeruginosa 23587): no change | change of activity on addition of sodium azide (P. aeruginosa 23587): potentiated | change of activity in the presence of cefepime and ceftazidime (P. aeruginosa 23587; Example 3): significant potentiation | Diameter of zone of inhibition (P. aeruginosa 23587; [5]): 16 m.m. | Diameter of zone of inhibition (P. aeruginosa 23587; Table 1, P. aeruginosa 23587, +PAN (20 μg/ml), 25 μg/well): 23.5 m.m. | Diameter of zone of inhibition (P. aeruginosa 23587; Table 1, P. aeruginosa 23587, +PAN (20 μg/ml), 50 μg/well): 27 m.m. | Diameter of zone of inhibition (P. aeruginosa 23587; Table 1, P. aeruginosa 23587, Control, 25 μg/well): 19H | Diameter of zone of inhibition (P. aeruginosa 23587; Table 1, P. aeruginosa 23587, Control, 50 μg/well): 23H | Diameter of zone of inhibition (P. aeruginosa 23587; Table 2, P. aeruginosa (23587), +Reserpine (25 μg/ml), 50 μg/well): 12H | Diameter of zone of inhibition (P. aeruginosa 23587; Table 2, P. aeruginosa (23587), +Reserpine (25 μg/ml), 100 μg/well): 20H | Diameter of zone of inhibition (P. aeruginosa 23587; Table 2, P. aeruginosa (23587), +Reserpine (25 μg/ml), 200 μg/well): 24H | Diameter of zone of inhibition (P. aeruginosa 23587; [6]): 21H | Diameter of zone of inhibition (P. aeruginosa 23587; [7]): 24H | Diameter of zone of inhibition (P. aeruginosa 23587; [8]): 30 m.m. | Diameter of zone of inhibition (P. aeruginosa 23587; Table 2, P. aeruginosa (23587), Control, 50 μg/well): 12H | Diameter of zone of inhibition (P. aeruginosa 23587; Table 2, P. aeruginosa (23587), Control, 100 μg/well): 20H | Diameter of zone of inhibition (P. aeruginosa 23587; Table 2, P. aeruginosa (23587), Control, 200 μg/well): 24H | Diameter of zone of inhibition (P. aeruginosa 23587; Table 3, P. aeruginosa 23587, +Cefepime (1 μg/ml), 100 μg/Well): 28H | Diameter of zone of inhibition (P. aeruginosa 23587; Table 3, P. aeruginosa 23587, +Cefepime (1 μg/ml), 200 μg/Well): 30H | Diameter of zone of inhibition (P. aeruginosa 23587; Table 3, P. aeruginosa 23587, +Ceftazidime (1 μg/ml), 100 μg/Well): 36 m.m. | Diameter of zone of inhibition (P. aeruginosa 23587; Table 3, P. aeruginosa 23587, +Ceftazidime (1 μg/ml), 200 μg/Well): 42 m.m. | Diameter of zone of inhibition (P. aeruginosa 23587; Table 3, P. aeruginosa 23587, Control, 100 μg/Well): 20H | Diameter of zone of inhibition (P. aeruginosa 23587; Table 3, P. aeruginosa 23587, Control, 200 μg/Well): 24H | change of activity in the presence of PAN (P. aeruginosa 23587): Synergistic enhancement

CO/N=C(\C(=O)N[C@@H]1C(=O)N2C(C(=O)[O-])=C(C[N+]3(C)CCCC3)CS[C@H]12)c1csc(N)n1 [Cefepime, cefepime]
inhibition of MDR RND efflux pumps, concluded from potentiation (P. aeruginosa 23587): inhibit RND pumps

CC[n+]1c(-c2ccccc2)c2cc(N)ccc2c2ccc(N)cc21 [Ethidium Bromide, ethidium bromide]
Diameter of zone of inhibition (P. aeruginosa 23587; [6]): 10H | Diameter of zone of inhibition (P. aeruginosa 23587; [7]): 13H | Diameter of zone of inhibition (P. aeruginosa 23587; [8]): 16H

NC(N)=NCCCC(NC(=O)[C@@H](N)Cc1ccccc1)C(=O)Nc1ccc2ccccc2c1 (stereo partly drawn) [PAN, Phe-Arg-beta-naphthylamide] (HELM PEPTIDE1{F.[N=C(N)NCCCC(N[*:1])C(=O)[*:2]].[c1ccc2cc(N[*:1])ccc2c1]}$$$$V2.0)
inhibition of MDR RND efflux pumps, concluded from potentiation (P. aeruginosa 23587): efflux inhibition

CN(C)c1cc(NC(=O)CNC(C)(C)C)c(O)c2c1C[C@H]1C[C@H]3[C@H](N(C)C)C(O)=C(C(N)=O)C(=O)[C@@]3(O)C(O)=C1C2=O [Tigecycline, tigecycline]
CFU/ml at 48 h (P. aeruginosa 2301 [3]): >5 × 10^9 CFU/ml

CC(=O)NC[C@H]1CN(c2ccc(N3CCOCC3)c(F)c2)C(=O)O1 [linezolid]
change of activity in the presence of PAN (P. aeruginosa 23587): Synergistic enhancement

COC(=O)[C@H]1[C@H]2C[C@@H]3c4[nH]c5cc(OC)ccc5c4CCN3C[C@H]2C[C@@H](OC(=O)c2cc(OC)c(OC)c(OC)c2)[C@@H]1OC [reserpine]
inhibition of MDR RND efflux pumps, concluded from potentiation (P. aeruginosa 23587): non inhibition

colistin
Diameter of zone of inhibition (P. aeruginosa 2301 [2]; [4]): 16 m.m. | Diameter of zone of inhibition (P. aeruginosa 2301 [2]; Table 6, +Cefepime (2 μg/ml), 12.5 μg/Well): 16 m.m. | Diameter of zone of inhibition (P. aeruginosa 2301 [2]; Table 6, +Ceftazidime (0.5 μg/ml), 12.5 μg/Well): 16 m.m. | Diameter of zone of inhibition (P. aeruginosa 23587): 12.5 m.m. and 14 m.m. and 16.5 m.m. and 11.5 m.m. and 16 m.m. | Diameter of zone of inhibition (P. aeruginosa 23587; [5]): 16.5 m.m. | Diameter of zone of inhibition (P. aeruginosa 23587; Table 2, P. aeruginosa (23587), +Reserpine (25 μg/ml), 12.5 μg/well): 16 m.m. | Diameter of zone of inhibition (P. aeruginosa 23587; Table 2, P. aeruginosa (23587), +sodium azide (10 μg/ml), 12.5 μg/well): 16 m.m. | Diameter of zone of inhibition (P. aeruginosa 23587; Table 3, P. aeruginosa 23587, +Cefepime (1 μg/ml), 12.5 μg/Well): 16 m.m. | Diameter of zone of inhibition (P. aeruginosa 23587; Table 3, P. aeruginosa 23587, +Ceftazidime (1 μg/ml), 12.5 μg/Well): 16 m.m. | change of activity in the presence of PAN (P. aeruginosa 23587): no change
